Measurements: patent US10494404B2, “Quinolinium conjugates of cyclosporin” (priority 2014, dated 2019)

Key:
[1] = tested on: Ca^2+ mediated PT pore formation; experiment: Calcium retention capacity (CRC) assay, isolated WT mouse liver mitochondria; assay type: biochemical
From the text: In order to assess the efficiency of compounds on Ca^2+ mediated PT pore formation we measured calcium retention capacity (CRC) of isolated mouse liver mitochondria. […] Energised mitochondria take up Ca^2+, resulting in a declining fluorescent signal following the Ca^2+ bolus induced peak. Mitochondria take up and buffer Ca^2+ up to a threshold when intramitochondrial [Ca^2+] reaches threshold to induce PT. […] The amount of Ca^2+ required to induce PT characterizes its Ca^2+ sensitivity and defines mitochondrial CRC. Inhibition of CypD, the Ca^2+ sensor of PT, thus leads to increased CRC.
Further experiments were carried out using the techniques discussed in Example 4.
Subcellular fractionation was performed as previously described (Astin et al, 2013). […] At 4° C., the liver was rinsed in PBS to remove excess blood, and any fat and connective tissue was eliminated. PBS was then replaced with isolation buffer containing 1 mM PMSF, and the liver was chopped into pieces (approximately 2 mm in length). Tissue was then homogenized in this solution until no solid matter remained, and then centrifuged at 800G for 10 minutes at 4° C. The nuclear pellet was then discarded, and the post nuclear supernatant retained, and centrifuged at 10300G for another 10 minutes at 4° C. The postmitochondrial supernatant was discarded, and the mitochondrial pellet was resuspended in isolation buffer and PMSF, and kept on ice. Protein levels were quantified using a ThermoScientific BCA protein quantification assay, as per manufacturer's instructions.
Isolated mitochondria were resuspended (500 μg protein/ml) in MSK buffer (75 mM mannitol, 25 mM sucrose, 5 mM potassium phosphate monobasic, 20 mM Tris-HCl, 100 mM KCl, and 0.1% bovine serum albumin, pH 7.4) supplemented with 10 mM succinate, 1 μM rotenone and 1 μM Fluo5N. 200 μl mitochondrial suspension per well was used in 96 well microplates. Compounds were incubated for ten minutes before the plate was assayed in a Fluostar Optima plate reader, using Ex/Em filters at 480/520 […]; CaCl2 was injected approximately every 6.5 minutes for 80 minutes (12 total injections, final concentration of 75 μM). To calculate % inhibition of Ca^2+ induced pore opening, first areas under each curve were calculated, and controls without CaCl2 addition were subtracted as background. The background corrected values were then expressed as the fraction of controls without mitochondria, representing the total amount of Ca^2+ added, unbuffered by mitochondria. Percentage inhibition for each [compound] was then calculated as the % of the corresponding value for the untreated condition. […] For experiments with CypD −/− mice, 100 ul mitochondrial suspension per well was used. CaCl2) was injected approximately every 6.5 minutes for 135 minutes (20 total injections, final concentration of 266 μM). Data were background corrected and expressed as the fraction of controls without mitochondria, and then normalised to the wild type no drug condition. Significance was assessed by one way ANOVA.

HepG2 cells = experiment: HepG2 high content screening of cell health markers; assay type: cell-based; conditions: HepG2, 72 h exposure
Protocol: HepG2 cells were plated on 96-well tissue culture treated black walled clear bottomed polystyrene plates, 100 μL, (3000 cells) per well. After 24 hours the cells were dosed with the test compounds at a range of concentrations. At the end of the incubation period, the cells were loaded with the relevant dye/antibody for each cell health markers set out below. The plates were then scanned using an automated fluorescent cellular imager [ArrayScan VTI (Thermo Scientific Cellomics)].
The following cell health markers were measured: • a. Cell count—a decreasing number of cells per well indicates toxicity due to necrosis, apoptosis or a reduction in cellular proliferation. • b. Nuclear area—an increase in nuclear size indicates necrosis or G2 cell cycle arrest and a decrease indicates apoptosis. • c. DNA structure—an increase in DNA structure indicates chromosomal instability and DNA fragmentation. • d. […]
HepG2 cells were seeded in black, clear-bottom 96-well tissue culture plates at a density of 3000 cells per well. […] Cell count, nuclear size and DNA structure were also measured Hoechst 33342 (Life Technologies). Following staining of the HepG2 cells fluorescence was analyzed by image acquisition with a Thermo Fisher Cellomics® ArrayScanVTI High Content Screening Reader (ThermoFisher Scientific Inc., Waltham, Mass.) and vHCS™ view software (ThermoFisher Scientific Inc.). […]

CC[C@@H]1NC(=O)[C@H]([C@H](O)[C@H](C)C/C=C/CCC[n+]2cccc3ccccc32)N(C)C(=O)[C@H](C(C)C)N(C)C(=O)[C@H](CC(C)C)N(C)C(=O)[C@H](CC(C)C)N(C)C(=O)[C@@H](C)NC(=O)[C@H](C)NC(=O)[C@H](CC(C)C)N(C)C(=O)[C@H](C(C)C)NC(=O)[C@H](CC(C)C)N(C)C(=O)CN(C)C1=O [Compound 1, [Gly-(1S,2R,E)-8-quinolinium-1-hydroxy-2-methyloct-4-ene]^1 CsA]
inhibition of Ca2+ mediated PT pore formation ([1]; 8 nM): […] | inhibition of Ca2+-induced PT (increased CRC), potency compared to CsA and SmBzCsA ([1]; isolated mouse liver mitochondria): […] | IC50 ([1]; isolated mouse liver mitochondria, read-out: half-maximal inhibition in the CRC assay): […] | effect on CRC ([1]; mitochondria from WT mice): […] | toxicity (cell health markers) compared with unmodified CsA (HepG2 cells): significantly reduced the toxicity of cyclosporin
